Test results reported in the supplement of paper PMC10307832.

Columns and labels:
Experiment in all cases: relative viability (nuclei count vs DMSO), 5 days (fraction); higher = more cells survive
[1] = compound: CN(C)C[C@@H]1CCn2cc(c3ccccc32)C2=C(C(=O)NC2=O)c2cn(c3ccccc23)CCO1 [Ruboxistaurin] + CS(=O)(=O)CCNCc1ccc(-c2ccc3ncnc(Nc4ccc(OCc5cccc(F)c5)c(Cl)c4)c3c2)o1 [Lapatinib] (partner 2 µM)
In short: (§1)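 Relative viability is defined as nuclei in treated wells over nuclei in vehicle wells. Duplicate plates were run and medians reported. Lung cancer cell lines in 1536-well plates were dosed by pin tool one day after seeding, with one drug or with a fixed anchor-drug dose plus five library-drug doses (not always all listed) in √10 steps, and nuclei were counted after 5 days.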

[2] = compound: CN(C)C[C@@H]1CCn2cc(c3ccccc32)C2=C(C(=O)NC2=O)c2cn(c3ccccc23)CCO1 [Ruboxistaurin] + CC1(C)CCC(c2ccc(Cl)cc2)=C(CN2CCN(c3ccc(C(=O)NS(=O)(=O)c4ccc(N[C@H](CCN5CCOCC5)CSc5ccccc5)c(S(=O)(=O)C(F)(F)F)c4)cc3)CC2)C1 [Navitoclax] (partner 0.5 µM)
In short: as §1

[3] = compound: CN(C)C[C@@H]1CCn2cc(c3ccccc32)C2=C(C(=O)NC2=O)c2cn(c3ccccc23)CCO1 [Ruboxistaurin] + Cc1nc(Nc2ncc(C(=O)Nc3c(C)cccc3Cl)s2)cc(N2CCN(CCO)CC2)n1 [Dasatinib] (partner 0.075 µM)
In short: as §1

[4] = compound: CN(C)C[C@@H]1CCn2cc(c3ccccc32)C2=C(C(=O)NC2=O)c2cn(c3ccccc23)CCO1 [Ruboxistaurin] + O=C(CCCCCCC(=O)Nc1ccccc1)NO [Vorinostat] (partner 1 µM)
In short: as §1

Ruboxistaurin = compound: CN(C)C[C@@H]1CCn2cc(c3ccccc32)C2=C(C(=O)NC2=O)c2cn(c3ccccc23)CCO1 [Ruboxistaurin]
In short: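 Lung cancer cell lines received five library-drug doses (not always all listed) spaced by √10, pinned on vehicle-anchored 1536-well plates after an overnight stay at 37 °C. Five days later, with no medium change, nuclei were Hoechst-stained, imaged at 4× and counted with MetaXpress. Viability is treated-well nuclei relative to vehicle-well nuclei, as a median across plates. Passing plates had control CV below 25% and at least one doubling.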

Cell Line	relative viability ([1]; first compound 0.08 µM)	relative viability ([1]; first compound 0.8 µM)	relative viability ([1]; first compound 2.53 µM)	relative viability ([1]; first compound 8 µM)	relative viability ([2]; first compound 0.08 µM)	relative viability ([2]; first compound 0.8 µM)	relative viability ([2]; first compound 2.53 µM)	relative viability ([2]; first compound 8 µM)	relative viability ([3]; first compound 0.08 µM)	relative viability ([3]; first compound 0.8 µM)	relative viability ([3]; first compound 2.53 µM)	relative viability ([3]; first compound 8 µM)	relative viability ([4]; first compound 0.08 µM)	relative viability ([4]; first compound 0.8 µM)	relative viability ([4]; first compound 2.53 µM)	relative viability ([4]; first compound 8 µM)	relative viability (Ruboxistaurin; 0.08 µM)	relative viability (Ruboxistaurin; 0.8 µM)	relative viability (Ruboxistaurin; 2.53 µM)	relative viability (Ruboxistaurin; 8 µM)
NCI-H2347	1.02	0.829	0.934	0.979	0.871	0.707	0.749	0.786	0.683	0.272	0.283	0.229	0.621	0.679	0.65	0.561	1.07	0.976	1.08	1.08
HCC-827	0.243	0.191	0.184	0.165	1.05	1.05	1.01	1.04	0.36	0.241	0.327	0.278	0.824	0.828	0.839	0.837	1.05	1.03	1.09	1.09
NCI-H1666	0.596	0.529	0.783	0.659	1.12	0.679	1.1	0.931	0.82	0.844	0.764	0.92	0.998	1.1	1.08	1.1	1.09	1.02	1.04	0.968
201T	1.06	1	1.06	1.05	1.21	1.18	1.24	1.25	0.572	0.536	0.603	0.559	1	0.961	1.05	1.03	1.03	0.98	1.01	0.973
PC-3 [JPC-3]	0.428	0.417	0.44	0.391	0.89	0.757	0.813	0.829	1	0.97	0.967	0.944	0.895	0.917	0.839	0.837	1.12	0.97	1.11	1.09
NCI-H2405	1.3	1.01	1.19	1.05	1.09	0.654	0.917	0.963	0.184	0.239	0.174	0.222	1.08	0.988	0.97	0.982	1.17	0.97	1.01	1.01
LXF-289	0.914	0.88	0.886	0.864	0.967	0.928	0.931	1.04	0.243	0.206	0.273	0.22	0.858	0.787	0.777	0.918	1.02	0.999	0.991	1.06
EKVX	0.2	0.19	0.216	0.188	0.981	0.903	1.03	0.882	0.641	0.476	0.551	0.579	0.841	0.65	0.714	0.75	1.06	0.928	1.02	0.884
A-427	0.995	0.988	0.917	0.983	0.947	0.816	0.831	0.752	0.677	0.639	0.675	0.374	0.826	0.824	0.872	0.838	0.997	0.871	0.924	0.821
SK-MES-1	0.515	0.413	0.5	0.425	1.35	1.15	1.4	1.09	0.395	0.308	0.329	0.339	1.11	1.03	1.03	0.95	1.07	0.91	1.02	0.898
LCLC-97TM1	1.1		1.6	1.05	0.672		0.332	0.411	0.891	0.896	0.968	0.821	0.683	0.691	0.74	0.613	0.905	0.948	1.08	0.906
NCI-H2170	0.243	0.241	0.263	0.251	0.57	0.592	0.581	0.56	0.592	0.61	0.489	0.519	0.856	0.775	0.854	0.855	0.994	0.875	1.06	0.953
NCI-H1993	0.837	0.789	0.848	0.808	1.08	0.919	0.994	0.689	0.78	0.422	0.561	0.555	0.856	0.711	0.727	0.542	1.18	0.756	0.908	0.696
NCI-H460	1.03	0.966	1.02	1.01	1.2	1.03	1.16	0.935	0.552	0.35	0.602	0.327	0.859	0.651	0.711	0.316	1.01	0.98	1.04	1.02
NCI-H1975	0.93	0.821	0.906	0.826	1.2	1.04	1.25	0.996	0.381	0.278	0.291	0.257	0.802	0.696	0.698	0.682	0.945	0.834	1.02	0.927
RERF-LC-KJ	0.905	0.837	0.781	0.77	1.36	0.977	0.881	0.833	0.847	0.608	0.833	0.652	0.663	0.623	0.675	0.644	1.04	0.903	0.995	0.959
NCI-H322M	0.589	0.54	0.543	0.543	1.2	1.09	1.24	1.19	0.265	0.267	0.257	0.228	0.878	0.753	0.737	0.556	1.02	0.863	0.895	0.551
NCI-H1651	0.828	0.697	0.843	0.717	1.08	0.827	1.05	1.11	0.436	0.339	0.356	0.435	0.54	0.573	0.611	0.499	1.02	0.983	1	1.03
HARA	0.803	0.672	0.712	0.57	1.2	1.16	1.14	1.14	0.216	0.232	0.228	0.3	0.724	0.494	0.535	0.546	0.978	0.918	0.976	0.929
H3255	0.221	0.217	0.27	0.221	0.548	0.438	0.519	0.478	0.495	0.353	0.347	0.335	0.717	0.717	0.815	0.898	1.09	0.919	0.99	0.99
CAL-12T	0.735	0.554	0.765	0.78	1.22	1.28	1.31	1.26	0.339	0.324	0.301	0.28	0.937	0.473	0.744	0.941	1.15	0.879	1.03	1.09
NCI-H1437	0.934	0.675	0.751	0.819	1.11	1.05	1.15	1.11	0.438	0.367	0.326	0.392	0.834	0.724	0.825	0.798	1	0.914	0.993	1.07
HOP-62	0.995	0.978	0.997	1	1.15	1	1.12	1.35	0.746	0.628	0.634	0.673	0.669	0.648	0.686	0.679	1.05	1.02	1.11	1.16
EPLC-272H	0.966	0.916	0.933	0.962	1.28	0.96	1.41	1.18	0.354	0.371	0.342	0.282	0.498	0.48	0.357	0.429	1.12	0.794	0.928	0.857
COR-L 105	0.335	0.385	0.365	0.341	0.741	0.64	0.776	0.807	0.352	0.236	0.362	0.262	0.96	0.925	0.842	0.816	1.08	0.803	0.949	0.782
HCC-366	1.12	0.988	1.02	1.01	1.05	0.81	1.16	0.995	0.564	0.526	0.624	0.52	0.407	0.434	0.374	0.307	0.989	0.95	1.02	1.05
NCI-H2009	1.02	0.956	0.931	1.13	1.21	1.16	1.18	1.17	0.341	0.225	0.267	0.225	0.794	0.7	0.756	0.821	1.04	0.946	1.06	1.19
NCI-H23	1.38	0.97	1.21	0.819	0.897	0.59	0.91	0.68	0.849	0.732	0.769	0.794	0.425	0.564	0.548	0.453	0.974	0.892	1.03	0.886
NCI-H727	1.09	0.552	0.804	0.602	0.46	0.394	0.458	0.338	0.474		0.296	0.324	1.1	1.14	1.13	1.28	0.952	0.7	0.969	0.808
NCI-H1355	1.06	0.916	0.933	0.814	1.09	0.853	0.897	0.813	0.774	0.614	0.638	0.464	0.693	0.604	0.62	0.583	1.05	0.882	0.971	0.944
